Assay results reported in patent US6552080B1, “Fungicidal compounds having a fluorovinyl-or fluoropropenyl-oxyphenyloxime moiety and process for the preparation thereof” (Korea Research Institute of Chemical Technology, priority 1999, dated 2003).
Like-named read-outs stand apart in the source and are kept apart here.

Columns and labels:
Rhizoctonia solani AG-1 = assay: Fungicidal activity against Rice Sheath Blight (RSB) disease; details: for RSB (Fungicidal Activities, C.V.): Rice Sheath Blight
Botrytis cinerae = assay: Fungicidal activity against Cucumber Gray Mold Rot (CGM) disease; type: in vivo; details: for CGM (Fungicidal Activities, C.V.): Cucumber Gray Mold Rot, concentration 50 ppm
Description: Botrytis cinerae, which was isolated from cucumber infected thereby, was inoculated on a PDA agar medium and cultured under a 12L/12D cycle at 25° C. for 15 days to form spore. The spores were scraped, filtered through a gauze and then suspended in potato dextrose liquid medium at a concentration of 1×10^6 spore/ml. The spore suspension was sprayed on a cucumber plant having one leaf. The cucumber plant was held in a humidified room at 20° C. for 3 days. L.A. on a leaf was measured to calculate an C.V.

[1] = tested on: Pyricularia oryzae Carvara KA301; type: in vivo; details: for RCV (Fungicidal Activities, C.V.): Rice Blast
Puccinia recondita = assay: Fungicidal activity against Wheat Leaf Rust (WLR) disease; type: in vivo; details: for WLR (Fungicidal Activities, C.V.): Wheat Leaf Rust
Erysiphae graminis = assay: Fungicidal activity against Barley Powdery Mildew (BPM) disease; type: in vivo; details: for BPM (Fungicidal Activities, C.V.): Barley Powdery Mildew
Phytophthora infestans = type: in vivo; details: for TLB (Fungicidal Activities, C.V.): Tomato Late Blight, concentration 50 ppm

COC=C(C(=O)OC)c1ccccc1CON=Cc1cccc(OC(F)=Cc2cccc(F)c2)c1 [Compound 11]
RSB (Fungicidal Activities, C.V.) (Rhizoctonia solani AG-1; concentration 50 ppm): 40% | CGM (Fungicidal Activities, C.V.) (Botrytis cinerae): 17% | RCV (Fungicidal Activities, C.V.) ([1]; concentration 2 ppm): 33% | RCV (Fungicidal Activities, C.V.) ([1]; concentration 10 ppm): 86% | RCV (Fungicidal Activities, C.V.) ([1]; concentration 50 ppm): 100% | WLR (Fungicidal Activities, C.V.) (Puccinia recondita; concentration 2 ppm): 97% | WLR (Fungicidal Activities, C.V.) (Puccinia recondita; concentration 10 ppm): 100% | WLR (Fungicidal Activities, C.V.) (Puccinia recondita; concentration 50 ppm): 100% | BPM (Fungicidal Activities, C.V.) (Erysiphae graminis; concentration 2 ppm): 98% | BPM (Fungicidal Activities, C.V.) (Erysiphae graminis; concentration 10 ppm): 99% | BPM (Fungicidal Activities, C.V.) (Erysiphae graminis; concentration 50 ppm): 100% | TLB (Fungicidal Activities, C.V.) (Phytophthora infestans): 85%

OC(c1ccc(Cl)cc1)(c1cncnc1)c1ccccc1Cl (stereo not drawn) [FENARIMOL, reference compound]
Fungicidal Activities RSB (C.V.) (Rhizoctonia solani AG-1; 0.08 ppm): 14% | Fungicidal Activities RSB (C.V.) (Rhizoctonia solani AG-1; 0.40 ppm): 30% | Fungicidal Activities RSB (C.V.) (Rhizoctonia solani AG-1; 2 ppm): 40% | Fungicidal Activities RSB (C.V.) (Rhizoctonia solani AG-1; 10 ppm): 85% | Fungicidal Activities CGM (C.V.) (Botrytis cinerae; 0.08 ppm): 0% | Fungicidal Activities CGM (C.V.) (Botrytis cinerae; 0.40 ppm): 7% | Fungicidal Activities CGM (C.V.) (Botrytis cinerae; 2 ppm): 7% | Fungicidal Activities CGM (C.V.) (Botrytis cinerae; 10 ppm): 7% | Fungicidal Activities RCV (C.V.) ([1]; 0.08 ppm): 0% | Fungicidal Activities RCV (C.V.) ([1]; 0.40 ppm): 0% | Fungicidal Activities RCV (C.V.) ([1]; 2 ppm): 0% | Fungicidal Activities RCV (C.V.) ([1]; 10 ppm): 0% | Fungicidal Activities WLR (C.V.) (Puccinia recondita; 0.08 ppm): 15% | Fungicidal Activities WLR (C.V.) (Puccinia recondita; 0.40 ppm): 15% | Fungicidal Activities WLR (C.V.) (Puccinia recondita; 2 ppm): 80% | Fungicidal Activities WLR (C.V.) (Puccinia recondita; 10 ppm): 100% | Fungicidal Activities BPM (C.V.) (Erysiphae graminis; 0.08 ppm): 50% | Fungicidal Activities BPM (C.V.) (Erysiphae graminis; 0.40 ppm): 95% | Fungicidal Activities BPM (C.V.) (Erysiphae graminis; 2 ppm): 100% | Fungicidal Activities BPM (C.V.) (Erysiphae graminis; 10 ppm): 100% | Fungicidal Activities TLB (C.V.) (Phytophthora infestans; 0.08 ppm): 0% | Fungicidal Activities TLB (C.V.) (Phytophthora infestans; 0.40 ppm): 60% | Fungicidal Activities TLB (C.V.) (Phytophthora infestans; 2 ppm): 75% | Fungicidal Activities TLB (C.V.) (Phytophthora infestans; 10 ppm): 80%

CON=C(C(=O)OC)c1ccccc1CON=C(C)c1cccc(OC(F)=Cc2cccc(C)c2)c1 [Compound 65]
RSB (Fungicidal Activities, C.V.) (Rhizoctonia solani AG-1; concentration 2 ppm): 30% | RSB (Fungicidal Activities, C.V.) (Rhizoctonia solani AG-1; concentration 10 ppm): 60% | RSB (Fungicidal Activities, C.V.) (Rhizoctonia solani AG-1; concentration 50 ppm): 100% | CGM (Fungicidal Activities, C.V.) (Botrytis cinerae): 71% | RCV (Fungicidal Activities, C.V.) ([1]; concentration 2 ppm): 100% | RCV (Fungicidal Activities, C.V.) ([1]; concentration 10 ppm): 100% | RCV (Fungicidal Activities, C.V.) ([1]; concentration 50 ppm): 100% | WLR (Fungicidal Activities, C.V.) (Puccinia recondita; concentration 2 ppm): 99% | WLR (Fungicidal Activities, C.V.) (Puccinia recondita; concentration 10 ppm): 100% | WLR (Fungicidal Activities, C.V.) (Puccinia recondita; concentration 50 ppm): 100% | BPM (Fungicidal Activities, C.V.) (Erysiphae graminis; concentration 2 ppm): 99% | BPM (Fungicidal Activities, C.V.) (Erysiphae graminis; concentration 10 ppm): 100% | BPM (Fungicidal Activities, C.V.) (Erysiphae graminis; concentration 50 ppm): 100% | TLB (Fungicidal Activities, C.V.) (Phytophthora infestans): 0%

COC=C(C(=O)OC)c1ccccc1CON=C(C)c1cccc(OC(F)=Cc2ccc(F)cc2)c1 [Compound 51]
RSB (Fungicidal Activities, C.V.) (Rhizoctonia solani AG-1; concentration 10 ppm): 88% | RSB (Fungicidal Activities, C.V.) (Rhizoctonia solani AG-1; concentration 50 ppm): 90% | CGM (Fungicidal Activities, C.V.) (Botrytis cinerae): 52% | RCV (Fungicidal Activities, C.V.) ([1]; concentration 10 ppm): 99% | RCV (Fungicidal Activities, C.V.) ([1]; concentration 50 ppm): 100% | WLR (Fungicidal Activities, C.V.) (Puccinia recondita; concentration 10 ppm): 100% | WLR (Fungicidal Activities, C.V.) (Puccinia recondita; concentration 50 ppm): 100% | BPM (Fungicidal Activities, C.V.) (Erysiphae graminis; concentration 10 ppm): 100% | BPM (Fungicidal Activities, C.V.) (Erysiphae graminis; concentration 50 ppm): 100% | TLB (Fungicidal Activities, C.V.) (Phytophthora infestans): 97%

COC=C(C(=O)OC)c1ccccc1CON=C(C)c1cccc(OC(F)=C(c2ccc(F)cc2)C(F)(F)F)c1 [Compound 160]
RSB (Fungicidal Activities, C.V.) (Rhizoctonia solani AG-1; concentration 50 ppm): 70% | CGM (Fungicidal Activities, C.V.) (Botrytis cinerae): 36% | Fungicidal Activities RCV (C.V.) ([1]; 2 ppm): 86% | RCV (Fungicidal Activities, C.V.) ([1]; concentration 10 ppm): 100% | RCV (Fungicidal Activities, C.V.) ([1]; concentration 50 ppm): 100% | Fungicidal Activities WLR (C.V.) (Puccinia recondita; 2 ppm): 99% | WLR (Fungicidal Activities, C.V.) (Puccinia recondita; concentration 10 ppm): 100% | WLR (Fungicidal Activities, C.V.) (Puccinia recondita; concentration 50 ppm): 100% | Fungicidal Activities BPM (C.V.) (Erysiphae graminis; 2 ppm): 99% | BPM (Fungicidal Activities, C.V.) (Erysiphae graminis; concentration 10 ppm): 100% | BPM (Fungicidal Activities, C.V.) (Erysiphae graminis; concentration 50 ppm): 100% | TLB (Fungicidal Activities, C.V.) (Phytophthora infestans): 92%

COC=C(C(=O)OC)c1ccccc1CON=Cc1cccc(OC(F)=Cc2ccc(F)cc2)c1 [Compound 12]
RSB (Fungicidal Activities, C.V.) (Rhizoctonia solani AG-1; concentration 50 ppm): 70% | CGM (Fungicidal Activities, C.V.) (Botrytis cinerae): 52% | RCV (Fungicidal Activities, C.V.) ([1]; concentration 2 ppm): 33% | RCV (Fungicidal Activities, C.V.) ([1]; concentration 10 ppm): 93% | RCV (Fungicidal Activities, C.V.) ([1]; concentration 50 ppm): 98% | WLR (Fungicidal Activities, C.V.) (Puccinia recondita; concentration 2 ppm): 100% | WLR (Fungicidal Activities, C.V.) (Puccinia recondita; concentration 10 ppm): 100% | WLR (Fungicidal Activities, C.V.) (Puccinia recondita; concentration 50 ppm): 100% | BPM (Fungicidal Activities, C.V.) (Erysiphae graminis; concentration 2 ppm): 98% | BPM (Fungicidal Activities, C.V.) (Erysiphae graminis; concentration 10 ppm): 100% | BPM (Fungicidal Activities, C.V.) (Erysiphae graminis; concentration 50 ppm): 100% | TLB (Fungicidal Activities, C.V.) (Phytophthora infestans): 83%
